Test system: Arabidopsis seedlings, primary root
Assay: Root growth inhibition assay, vertical plates
Type: in vivo, Arabidopsis thaliana
Conditions: bak1 mutants, 0.1 μM, 8 days
Experimental: (A) and (B) Arabidopsis seedlings (2 days old) were treated with 10 μM AtRALF1 or water (H20) for 2 days. The values are the mean ± SD of at least 25 seedlings. Triple asterisks indicate P < 0.01 (Student’s t test); ns, not significant. (C) Four-day-old seedlings were transferred to media containing different concentrations of AtRALF1, and the primary root length was measured after 8 days of treatment. The data represent the mean value ± SD of 30 seedlings. […] Representative Arabidopsis seedlings after 8 days of treatment with AtRALF1 are shown below. Seedlings were arranged on plates after the treatment for imaging. Scale bars, 1 cm. (D) Two-day-old seedlings were treated with 10 μM AtRALF1 or water for 2 days, and root cell length was measured after 2 days of treatment. Cells from the root endodermis in the differentiation zone were measured. The values are the mean ± SD of approximately 150 cells. Triple asterisks indicate P < 0.01 (Student’s t test); ns, not significant.
Aliquots of 1 ml of medium containing seeds were distributed into 24-well plates. The peptides (10 μM) were added after 2 days, and the root length was measured 2 days after treatment. To maximize root growth, the seeds were germinated in vertical plates. […] The root length was measured 8 days after treatment unless stated otherwise. Control plants were grown under identical conditions in a peptide-free medium. Quantitative data were obtained as previously described. […] The data from one representative experiment are shown. For cell length measurements, AtRALF1 peptide (10 μM) was added after 2 days of germination, and the cell length was measured after 2 days of treatment. The cell wall was stained with a 1 mg ml^-1 propidium iodide solution (Sigma) in the dark for 15 min and washed twice with water. Cells of the endodermis of the root differentiation zone were imaged and measured using confocal microscopy (Olympus FV1000). Approximately 30 plants from each genetic background and at least 5 cells per root were measured. The wavelengths for excitation and emission were 555 and 655 nm, respectively. Image processing was completed using the Olympus FluoView software.
Supplementary file pgen.1007053.s004.pdf: S4 Fig Analyses of root growth of Arabidopsis seedlings treated with AtRALF1 peptide for 8 days and evaluated daily. Four-day-old seedlings were transferred to media containing different concentrations of AtRALF1, and the primary root length was measured daily during the 8 days of treatment. Genotypes Wt, bak1-1, bak1-3 and bak1-4 are indicated on top of each series of graphics. The seedlings were treated with 0, 0.5, 1, 5 and 10 μM AtRALF1. The data represent the mean values ± SD of 30 seedlings. Double and triple asterisks indicate P < 0.05 and P <0.01, respectively (Student’s t test); ns, not significant. (PDF) Click here for additional data file.
Four-day-old seedlings were transferred to medium containing 10 μM AtRALF1, and the primary root length was measured after 8 days of treatment. The data represent the mean value ± SD of 20 seedlings. Triple asterisks indicate P < 0.01 (Student’s t test); ns, not significant. Representative Arabidopsis seedlings after 8 days of treatment with AtRALF1 are shown. The seedlings were arranged on plates after the treatment for imaging. Scale bars, 1 cm. (PDF) Click here for additional data file.
Four-day-old seedlings were transferred to medium containing 0.1 μM BAP, and the primary root length was measured after 8 days of treatment. The data represent the mean value ± SD of 10 seedlings.

c1ccc(CNc2ncnc3nc[nH]c23)cc1 [6-benzylaminopurine (BAP), 6-benzylaminopurine, reference compound]
root growth inhibition: capable of inhibiting the root growth of bak1 mutants

— paper PMC5656322, “BAK1 is involved in AtRALF1-induced inhibition of root cell expansion” (PLoS Genetics, 2017)
